# Assay results from patent US8048862B2, “Macrocyclic inhibitors of hepatitis C virus replication” (priority 2008, dated 2011).
# Where two headings read alike, the source gives them in different places.
# Assays:
# [1] = system: hepatitis C replicon; assay: hepatitis C replicon EC50; assay type: cell-based; conditions: Hepatitis C virus; Table 3; hepatitis C replicon; read-out: EC50
# Text: NS3-NS4 inhibition activity can be determined using known assay methods.
# [2] = biological target: NS3/NS4 complexes (Hepatitis C virus genotype 1a, UniProt P27958); assay: NS3/NS4 inhibition activity (IC50); assay type: biochemical
# Outline: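 NS3/NS4 complexes were formed and compound inhibitory concentrations determined at ambient temperature (23 °C). The buffer contained 50 mM Tris-HCl pH 7.5, 15% glycerol, 0.6 mM LDAO, 25 μM NS4A peptide and 10 mM DTT.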
# Sequence of NS3/NS4 complexes (P27958 1027-1657): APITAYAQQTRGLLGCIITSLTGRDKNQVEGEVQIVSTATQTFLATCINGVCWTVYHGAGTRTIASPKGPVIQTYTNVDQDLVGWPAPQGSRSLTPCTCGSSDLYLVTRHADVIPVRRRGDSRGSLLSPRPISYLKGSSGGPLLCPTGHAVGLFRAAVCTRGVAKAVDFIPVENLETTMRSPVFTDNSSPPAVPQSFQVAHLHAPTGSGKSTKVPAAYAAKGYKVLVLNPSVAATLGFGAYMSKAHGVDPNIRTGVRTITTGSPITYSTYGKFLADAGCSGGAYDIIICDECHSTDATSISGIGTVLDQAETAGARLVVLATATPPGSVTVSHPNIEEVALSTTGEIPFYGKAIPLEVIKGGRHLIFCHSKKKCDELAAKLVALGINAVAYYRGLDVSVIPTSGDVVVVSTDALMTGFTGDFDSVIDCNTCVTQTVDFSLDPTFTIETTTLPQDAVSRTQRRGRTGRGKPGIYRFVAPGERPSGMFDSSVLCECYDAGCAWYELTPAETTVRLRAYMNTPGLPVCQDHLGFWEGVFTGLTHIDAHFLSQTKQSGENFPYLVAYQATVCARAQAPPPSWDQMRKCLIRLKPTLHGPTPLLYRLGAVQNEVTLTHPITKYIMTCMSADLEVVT
# Sequence of NS3/NS4 complexes (P27958 1658-1711): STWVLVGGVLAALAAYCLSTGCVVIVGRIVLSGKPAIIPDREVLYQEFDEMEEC
SMILES,EC50 [1] [µM],"IC50 ([2]; Table 3, read-out: IC50) [µM]","IC50 ([2]; IC50, Table 3) [µM]"
Cc1cccc2nc(O[C@@H]3C[C@H]4C(=O)N[C@]5(C(=O)NS(=O)(=O)N(C)C)C[C@H]5/C=C\CCCCC[C@H](NC(=O)OC(C)(C)C)C(=O)N4C3)n(C(C)C)c12 [Compound 1138],< 0.01,< 0.01,–
Cc1ccc2nc(O[C@@H]3C[C@H]4C(=O)N[C@]5(C(=O)NS(=O)(=O)N(C)C)C[C@H]5/C=C\CCCCC[C@H](NC(=O)OC(C)(C)C)C(=O)N4C3)n(C(C)C)c2c1 [Compound 1139],< 0.01,< 0.01,–
Cc1cccc2c1nc(O[C@@H]1C[C@H]3C(=O)N[C@]4(C(=O)NS(=O)(=O)N(C)C)C[C@H]4/C=C\CCCCC[C@H](NC(=O)OC(C)(C)C)C(=O)N3C1)n2C(C)C [Compound 1140],< 0.01,< 0.01,–
CN(C)S(=O)(=O)NC(=O)[C@@]12C[C@H]1/C=C\CCCCC[C@H](NC(=O)OC(C)(C)C)C(=O)N1C[C@H](Oc3nc4ccccc4n3C3CCCC3)C[C@H]1C(=O)N2 [Compound 1141],< 0.01,< 0.01,–
CC(C)n1c(O[C@@H]2C[C@H]3C(=O)N[C@]4(C(=O)NS(=O)(=O)C5CC5)C[C@H]4/C=C\CCCCC[C@H](NC(=O)OC(C)(C)C)C(=O)N3C2)nc2ccccc21 [Compound 1142],< 0.01,< 0.01,–
CN(C)S(=O)(=O)NC(=O)[C@@]12C[C@H]1/C=C\CCCCC[C@H](NC(=O)OC(C)(C)C)C(=O)N1C[C@H](Oc3nc4ccccc4n3COCC[Si](C)(C)C)C[C@H]1C(=O)N2 [Compound 1143],> 0.1,–,< 0.01
CN(C)S(=O)(=O)NC(=O)[C@@]12C[C@H]1/C=C\CCCCC[C@H](NC(=O)OC(C)(C)C)C(=O)N1C[C@H](Oc3nc4ccccc4[nH]3)C[C@H]1C(=O)N2 [Compound 1144],> 0.1,< 0.01,–
